Experiments:
[1] = Microsomal stability, mouse liver microsomes; assay type: in vitro ADME; details: for % Drug Remaining NADPH Neg, Mouse Liver Microsomes / % Drug Remaining NADPH Pos, Mouse Liver Microsomes: 10 μM
Procedure: An incubation mixture with, and without NADPH-generating system, as well as a neat solution prepared without microsomes and NADPH-generating system was used. […] All reactions were initiated with the addition of Up284. Incubations were performed in glass tubes maintained at 37°C in a shaker bath. At 0, 30, and 60 minutes, 10 μL samples were withdrawn from the reaction mixture, and 0.5 mL of acetonitrile containing internal standard was added to each. Samples were vortex-mixed and subjected to centrifugation for 5 min at 1430 x g. A 10 μL aliquot of the supernatant was injected onto the LC-MS/MS instrument for qualitative analysis using a temperature-controlled autosampling device operating at 5°C.

[2] = Plasma stability, human EDTA plasma; assay type: in vitro ADME; details: for % Drug Remaining, Plasma (Human EDTA): 10 μM, 37°C
TC1-OVA cells = assay: Antigen presentation (H-2Kb/[…]) by TC1-OVA cells, flow cytometry; assay type: cell-based, mouse; details: 0.25 μM, 12 h
Procedure: TC1 cells stably expressing Ovalbumin (TC1-OVA) were plated (125,000 cells/well) in a 6 well plate in 2 mL RPMI complete medium.
C) TC1-OVA cells were plated (125,000 cells/well) in a 6 well plate in 2 mL/well in complete medium.

[3] = test system: proteasome (4UbFL reporter); assay: In vivo 4UbFL proteasome reporter in electroporated leg muscle, CD1 mice; set-up: species or system mouse
Procedure: A patch of CD1 mouse leg was shaved of hair and 10 μg 4Ub-FL plasmid in 20 μL of PBS was injected into the quadriceps femoralis muscle followed immediately by injection of the 2 Needle Array to 5 mm depth encompassing the injection site and square wave EP (ElectroSquarePorator 833, BTX-2 Needle array 5mm gap, Harvard apparatus) delivered as eight pulses at 106V for 20 ms with 200 ms intervals. One day post-EP, mice were anesthetized with isoflurane, injected IP with luciferin (0.3 mg in 100 μL water) and optical imaging was performed to determine basal level luciferase expression. Images were acquired for 10 min with a Xenogen IVIS 200 (Caliper, Hopkinton, MA). Equally sized areas were analyzed using Living Image 2.20 software.
Two days later, luciferin was injected IP and the baseline enzymic activity of luciferase in the transduced muscle tissue was visualized as bioluminescence within this region of interest (ROI) using an IVIS imager. […] After 4h, 24h and 48h the mice were again injected with luciferin, imaged and bioluminescence was quantified (Fig 5B).
A) ES2 cells stably transduced with the 4UbFL reporter plasmid were treated with compounds at indicated doses for 4 h. The cells were then washed, lysed and their luminescence measured by a luminometer after addition of luciferin. B) Female CD1 mice electroporated with 4UbFL plasmid in their leg muscle. After 48 h, the mice were injected with luciferin, imaged by IVIS for their basal bioluminescence and randomized into two groups of five. […] D) Up284 tissue distribution. […] Up284 levels in tissue samples were analyzed by HPLC. E) Up284 pharmacokinetics. […] Blood was collected at indicated time points thereafter and analyzed for Up284 levels by HPLC.

RPN13 = biological target: T1, RPN13 (Homo sapiens, UniProt Q16186); assay: Cellular Thermal Shift Assay (CETSA), SKOV3 cells; assay type: binding; details: SKOV3, 10 μM, 30 min, vs DMSO
T1 construct: endogenous in cells; host or cells: SKOV3 cells
Procedure: Cells were incubated in a thermal cycler (Biorad IQ5 Cycler) over a gradient of temperatures for 4 min, followed by incubation at 25°C for 3 min, then snap-frozen in liquid nitrogen and subjected to three freeze–thaw cycles. Samples were briefly vortexed and centrifuged at 16,000 x g for 20 min at 4°C. Cleared cell lysates were resolved in SDS–PAGE followed by immunoblotting for RPN13, GAPDH, RPN2 and USP14.
Cellular Thermal Shift Assay (CETSA) assesses thermal stabilization of proteins upon ligand binding and is used extensively to detect drug interactions by implementing a thermal shift in the cellular context. The assay involves drug treatment of cells, heating to denature and precipitate proteins in a thermocycler with a specified gradient of temperatures, cell lysis by freeze/thaw cycles, and the separation of cell debris and aggregates from the soluble protein fraction by centrifugation. Whereas unbound proteins denature and precipitate at elevated temperatures, ligand-bound proteins remain in solution. The proportion of individual proteins remaining in solution can be detected by quantitative Western blotting. […]. There was no impact on other control proteins tested, including a house keeping protein (GAPDH) and proteasome subunits (RPN2 and USP14). […]
Resuspended cells were aliquoted into PCR strips. […]

[4] = test system: ID8-luc murine ovarian tumor; assay: ID8-Defb29/VegfA-luc syngeneic model, C57BL6 mice; assay type: in vivo, mouse
Procedure: Female C57BL6 mice were inoculated IP with 3x10^5 ID8-Defb29/VegfA-luc cells in 100 μL PBS. At day 3, mice were imaged for basal level luminescence activity with a Xenogen IVIS 200 after IP injection with luciferin (0.3 mg in 100 μL water). Mice were randomized into groups and treated IP with compounds or vehicle (25% (w/v) β-Hydroxypropylcyclodextrin in water), and imaged again on days indicated.
A-C) Female nude mice were inoculated IP with ES2-luc cells, a human ovarian cancer line expressing luciferase. […] The IP tumor tissue and electroporated normal muscle tissue, being spatially distinct, were identified with separate regions of interest (ROI) after simultaneous imaging with IVIS.
Female C57BL6 mice (4–6 weeks) were challenged IP with ID8-luc tumor.

[5] = test system: HMW polyUb proteins in ES2 cells; assay: Western blot for polyubiquitinated proteins; details: by 12 h

T1 sequence (Q16186 whole entry): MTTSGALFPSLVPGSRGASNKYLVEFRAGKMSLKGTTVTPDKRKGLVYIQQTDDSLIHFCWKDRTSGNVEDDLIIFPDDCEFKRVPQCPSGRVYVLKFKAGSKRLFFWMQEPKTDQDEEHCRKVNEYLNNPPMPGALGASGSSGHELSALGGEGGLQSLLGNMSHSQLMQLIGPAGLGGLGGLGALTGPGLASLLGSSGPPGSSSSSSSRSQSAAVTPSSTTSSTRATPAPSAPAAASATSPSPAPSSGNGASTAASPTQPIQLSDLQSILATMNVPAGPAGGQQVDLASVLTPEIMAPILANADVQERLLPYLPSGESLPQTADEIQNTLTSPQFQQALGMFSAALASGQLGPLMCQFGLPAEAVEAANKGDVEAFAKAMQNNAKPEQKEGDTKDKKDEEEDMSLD

N#Cc1ccc(/C=C2/C(=O)/C(=C/c3ccc(C#N)cc3)C23CCNCC3)cc1 [Up284]
additional degradation in the presence of NADPH, mouse liver microsomes [1]: ~ 10%
degradation in mouse liver microsomes without NADPH [1]: ~ 50%
% Drug Remaining NADPH Neg, Mouse Liver Microsomes ([1]; 0 min): 100%
% Drug Remaining NADPH Pos, Mouse Liver Microsomes ([1]; 0 min): 100%
% Drug Remaining NADPH Neg, Mouse Liver Microsomes ([1]; 30 min): 60%
% Drug Remaining NADPH Pos, Mouse Liver Microsomes ([1]; 30 min): 45%
% Drug Remaining NADPH Neg, Mouse Liver Microsomes ([1]; 60 min): 51%
% Drug Remaining NADPH Pos, Mouse Liver Microsomes ([1]; 60 min): 38%
% Drug Remaining, Plasma (Human EDTA) ([2]; 0 min): 100%
% Drug Remaining, Plasma (Human EDTA) ([2]; 30 min): 100%
% Drug Remaining, Plasma (Human EDTA) ([2]; 60 min): 90%
degradation in human plasma ([2]; after incubating for 1 hour): < 10%
MHC class I antigen presentation (SIINFEKL on H-2Kb) (TC1-OVA cells): enhanced MHC class I antigen presentation
4UbFL reporter stabilization in muscle, PO ([3]; Up284 PO once 40mg/kg vs ixazomib 10 mg/kg): better stabilized the reporter than ixazomib
duration of enhanced 4UbFL bioluminescence ([3]; single IP dose 40 mg/kg): > 48 h
4UbFL bioluminescence in leg muscle ([3]; single IP dose 40 mg/kg, 4h, 24h and 48h): significantly enhanced bioluminescence levels
thermal stabilization of RPN13 (RPN13): stabilized
survival vs vehicle ([4]; C57BL6, 20 mg/kg IP every third day for 4 weeks, p = 0.0004): significantly enhanced survival
ID8-luc tumor burden (bioluminescence) vs vehicle ([4]; C57BL6, 20 mg/kg IP every third day, day 15, p = 0.0001): significantly lower tumor burden
accumulation of HMW polyUb proteins [5]: profound accumulation
